Test results as given in patent US20110237533A1, “NOVEL POLYPHENOL COMPOUND” (priority 2008, published 2011).
Like-named read-outs stand apart in the source and are kept apart here.

Biological target: T1, pancreatic lipase derived from swine (Sus scrofa, UniProt P00591)
T1 construct: purchased Sigma Ltd
T1 sequence (P00591 1-450): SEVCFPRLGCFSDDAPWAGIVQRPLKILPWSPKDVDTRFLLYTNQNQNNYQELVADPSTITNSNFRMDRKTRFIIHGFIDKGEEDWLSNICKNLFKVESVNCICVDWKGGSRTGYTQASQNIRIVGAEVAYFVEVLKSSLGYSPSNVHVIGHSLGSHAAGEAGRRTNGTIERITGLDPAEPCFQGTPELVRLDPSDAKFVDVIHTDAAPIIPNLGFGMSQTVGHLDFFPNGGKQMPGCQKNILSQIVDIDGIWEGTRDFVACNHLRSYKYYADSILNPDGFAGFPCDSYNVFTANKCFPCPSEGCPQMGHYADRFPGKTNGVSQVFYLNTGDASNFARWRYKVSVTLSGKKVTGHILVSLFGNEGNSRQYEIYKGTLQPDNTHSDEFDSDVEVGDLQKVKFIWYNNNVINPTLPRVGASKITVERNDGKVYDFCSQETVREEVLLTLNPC
Test: lipase inhibitory test (4-MUO substrate, fluorescence)
Format: biochemical
Details: read-out: lipase inhibitory activity (%)

Structure (SMILES)	inhibition at 250 µM [%]	inhibition at 250 µM (sample concentration 250 μM, 4-MUO substrate, 37° C., 30 minutes) [%]
O=c1c(O)c(-c2ccc(O)c(O)c2)oc2cc(O)cc(O)c12 [quercetin]	64.3	
O=C(O)c1cc(O)c(O)c(O)c1 [gallic acid]		50
